Values of other authors, collected in patent publication US7148216B2, “Combinations of drugs for the treatment of neoplastic disorders” (CombinatoRx, Inc., priority 2000, dated 2006).
Read-outs that look alike come from different tables or passages of the source.

solubility (in ether, acetone, and chloroform): insoluble
solubility (in water and glycerin): soluble
Structure (SMILES): N=C(N)c1ccc(OCCCCCOc2ccc(C(=N)N)cc2)cc1 [pentamidine isethionate, 4,4′-diamidino-diphenoxypentane di(β-hydroxyethanesulfonate)]
